{"source": "patent US20220296518A1", "about": "“LIPID-BASED NANOPARTICLE DELIVERY SYSTEM FOR HYDROPHILIC CHARGED COMPOUND” (National Taiwan University, priority 2021, published 2022)", "key": {"[1]": {"experiment": "In vitro drug release by dialysis at pH 7.4 (PBS) and pH 5.4 (citrate buffer), 37° C.", "assay_type": "physicochemical", "excerpt": "The “normalized release” is defined as release ratio in pH 5.4 environment divided by release ratio in pH 7.4 environment wherein the release ratio is defined as the percentage of API released from LNP. A high normalized release is a result of high release ratio in pH 5.4 environment as compared to the release ratio in pH 7.4 environment. Since tumor sites present acidic environment, a high normalized release is a metric indicating tumor targeting capability of an LNP. During experiments, PBS buffer was used to simulate a physiological environment at pH of 7.4, while citrate buffer was used to simulate a tumor microenvironment at pH of 5.4, wherein the citrate buffer contains sodium citrate dehydrate and citric acid and its pH can be adjusted using NaOH and HCl. The in vitro API release was evaluated in these two different solutions using the following steps: 1 mg/mL LNP-dox solution in PBS buffer was prepared by diluting LNP-dox using PBS buffer. The solution was placed into a 1 mL/5 cm dialysis tube (Float-A-lyzer), in which the pore size is 100 kDa. The tube was placed into a beaker containing 150 mL dialysis buffer. The beaker was then placed into a 37° C. water bath. Samples of 1 mL solution were taken from the beaker at 0, 0.5, 1, 2, 4, 8, 26, and 31 hour(s). The API content in the samples was analyzed using UV-Vis spectrophotometer such as […]. […]"}, "colon-26 carcinoma tumor": {"test_system": "colon-26 carcinoma tumor", "experiment": "In vivo therapeutic efficacy in colon-26 carcinoma tumor-bearing mice", "set-up": "species or system BALB/c mice", "conditions": "end of the experiment; 5 mg/kg of dox via tail vein, once per week", "description": "C26 […] cancer cell line was implanted into the backs of BALB/c mice to create colon-26 carcinoma tumor-bearing mice. When the tumor grew to 100 mm^3, LNP 1 of the present invention containing dox was injected via mice's vein located in the tail at a dosage of 5 mg/kg of dox, once per week. At predetermined time periods 1, 2, 5, 7, 9, 12, 14, 19, 21, 22 days, tumor volume was determined by Vernier caliper. The experiment continued until either mouse death or the tumor size exceeding 2,500 mm^3."}, "Staphylococcus aureus": {"test_system": "Staphylococcus aureus", "experiment": "In vitro antibacterial susceptibility, Staphylococcus aureus", "assay_type": "cell-based", "conditions": "10^5 CFU, about 24 hour, about 37° C.", "description": "FIG. 8 illustrates in vitro Staphylococcus aureus antibacterial susceptibility to LNP 1 of the present invention encapsulating doxycycline as compared to free form doxycycline both at MIC 0.4 mcg/ml.\n(§1) Free form doxycycline and LNP 1 of the present invention containing doxy were separately applied to Staphylococcus aureus bacteria as well as methicillin-resistant Staphylococcus aureus at 10^5 CFU, incubation with LNP for about 24 hour at about 37° C."}, "[2]": {"test_system": "methicillin-resistant Staphylococcus aureus", "experiment": "In vitro antibacterial susceptibility, methicillin-resistant Staphylococcus aureus", "assay_type": "cell-based", "conditions": "10^5 CFU, about 24 hour, about 37° C.", "description": "FIG. 9 illustrates in vitro methicillin-resistant Staphylococcus aureus antibacterial susceptibility to LNP 1 of the present invention encapsulating doxycycline as compared to free form doxycycline both at MIC 0.4 mcg/ml.\nas §1"}}, "data": [{"smiles": "COc1cccc2c1C(=O)c1c(O)c3c(c(O)c1C2=O)C[C@@](O)(C(=O)CO)C[C@@H]3O[C@H]1C[C@H](N)[C@H](O)[C@H](C)O1", "note": "[free form dox, doxorubicin]", "values": [{"measurement": "normalized release (release ratio at pH 5.4 / release ratio at pH 7.4)", "setting": "[1]; 37° C., dialysis, up to 31 hours", "value": "about 1"}, {"measurement": "release rate (in words)", "setting": "[1]; pH 7.4 and pH 5.4, 37° C., FIG. 6", "value": "released the fastest of the three"}, {"measurement": "mice that died or had tumor size of over 2500 mm^3", "setting": "colon-26 carcinoma tumor", "value": 40, "unit": "%"}]}, {"smiles": "C[C@H]1c2cccc(O)c2C(=O)C2=C(O)[C@]3(O)C(=O)C(C(N)=O)=C(O)[C@@H](N(C)C)[C@@H]3[C@@H](O)[C@@H]21", "note": "[free form doxycycline, doxycycline]", "values": [{"measurement": "MIC", "setting": "Staphylococcus aureus", "value": 0.4, "unit": "µg/mL"}, {"measurement": "MIC", "setting": "[2]", "value": 0.4, "unit": "µg/mL"}]}]}
